Results: patent US20060063785A1, “Substituted pyrazolo[1,5-a] pyrimidines and process for making same” (priority 2004, published 2006)
Like-named read-outs stand apart in the source and are kept apart here.

Tested on: 80S14 (p21-deficient) cells
Assay: Determination of selectivity of compounds for p21-/- cells: IC50 in 80S14 cells (SRB)
Format: cell-based, human
Protocol: • 1. 80S14 (p21-deficient) cells were cultured in RPMI 1640 medium (Gibco/Invitrogen Life technologies) supplemented with 10% fetal bovine serum (FBS, Gibco) and 10 μg/ml gentamycin (Gibco). Cells were maintained at 37° C. under 7% CO2. • 2. Cells were plated at 6×10^4/ml (0.2 ml/well; 12,000 cells/well) in 96-well microtiter plates (Falcon or Corning/Costar) and incubated at 37° C. overnight (18-24 hours). • 3. 2-5 μl of the test agent-[200 μg/ml stock in 20% DMSO/20 mM HEPES, pH 7.5 (Gibco)] was added to each well to achieve a final concentration of 2-5 μg/ml. Cells were incubated with the test compounds for 5 days at 37° C. • 4. Surviving cells were fixed with 50 μl 50% trichloroacetic acid (Sigma; 10% final concentration) for 1 hour at 4° C. • 5. Plates were rinsed twice with water (0.3 ml per wash using MRD8 robot), and allowed to dry. • 6. Sulforhodamine B (SRB) (Sigma; 0.4% in 1% acetic acid, 50 μl per well; MRD8 robot) was added and plates kept at room temperature for 10 minutes. • 7. Excess dye was removed by washing with 1% acetic acid (3 times, 0.3 ml per wash; MRD8 robot) and allowed to dry. • 8. The dye was solubilized in Tris base (Sigma; 10 mM, 150 μl per well). Plates were kept at room temperature for 30 minutes to allow the dye to diffuse. • 9. Absorbance was measured at 540 nm. • 10. The percentage of cells surviving drug treatment relative to control wells (no drug) was determined. • 11. The difference in % cell survival between the two cell lines was calculated. • 12. Compounds producing a difference score of >50 were considered to be selective for the p21-deficient cells and were evaluated further. Determination of Selectivity of Compounds for p21−/− Cells: • 1. 80S14 cells were cultured as described above. • 2. Cells were seeded in 96-well microtiter plates at 12,000 cells/well (either 0.15 ml/well of 8×10^4 cells/ml suspension, or 0.2 ml/well of 6×10^4 cells/ml suspension). Plates were incubated at 37° C. overnight (18-24 hours). • 3. Serial dilutions of the test agent were added to each well. Dilutions were prepared either in 40% DMSO/20% methanol/20 mM HEPES, pH 7.5 (Gibco) or directly in growth medium. One of two dose ranges were used: 5 pM to 50 μM or 170 pg/ml to 10 μg/ml. Cells were incubated with the test compounds for 5 days at 37° C. • 4. Surviving cells were fixed with 50 μl 50% trichloroacetic acid (Sigma; 10% final concentration) for 1 hour at 4° C. • 5. Plates were rinsed extensively in water, and allowed to dry. • 6. Sulforhodamine B (Sigma; 0.4% in 1% acetic acid, 70 μl per well) was added and plates kept at room temperature for 10 minutes. • 7. Excess dye was removed by washing 5 times with 1% acetic acid and plates were allowed to dry. • 8. The dye was solubilized in Tris base (Sigma; 10 mM, 150 μl per well). Plates were placed on a titer plate shaker (Lab Line Instruments) for 5 minutes to allow the dye to diffuse. • 9. Absorbance was measured at 560 nm.
10. The drug concentration which inhibits cell proliferation by 50% relative to untreated controls (IC50) was determined from cytotoxicity curves.

[1] = Cellular activity in 80S14 (p21-deficient) cells, SRB, class symbols, read-out: IC50 for 80S14
[2] = Homo sapiens, 120 h, 80S14 (p21-deficient) cells, 5 days at 37° C., SRB, read-out: IC50 for 80S14
[3] = 80S14 (p21-deficient) cells, 5 days at 37° C., SRB, read-out: IC50 for 80S14

Compound	IC50 [2] [µM]	IC50 [3] [µM]	further results
3-(3,5-Dimethylphenyl)-7-{3-[2-(2-piperidin-1-ylethyl)-2H-tetrazol-5-yl]phenyl}pyrazolo[1,5-a]pyrimidine [Example 388]	–	–	IC50 [1]: 1 to 10 µM
3.5-Dinitro-N-{3-[3-(2-thienylcarbonyl)pyrazolo[1,5-a]pyrimidin-7-yl]phenyl}benzamide [Example 198]	–	–	IC50 [1]: 10 to 50 µM
C[C@H](NC(=O)Nc1cccc(-c2ccnc3c(C(=O)c4cccs4)cnn23)c1)c1ccccc1 [Example 9, N-[(1S)-1-phenylethyl]-N′-{3-[3-(thien-2-ylcarbonyl)pyrazolo [1,5-a]pyrimidin-7-yl]phenyl}urea]	1 to 10	–	–
C=C(C)OC(=O)Nc1cccc(-c2ccnc3c(C(=O)c4cccs4)cnn23)c1 [Example 15, isopropenyl3-[3-(thien-2-ylcarbonyl)pyrazolo[1,5-a]pyrimidin-7-yl]phenylcarbamate]	–	–	IC50 (Homo sapiens, 80S14, 120 h, read-out: IC50 for 80S14 (μM)): < 1 µM
CCS(=O)(=O)Nc1cccc(-c2ccnc3c(C(=O)c4cccs4)cnn23)c1 [Example 21, N-{3-[-(thien-2-ylcarbonyl)pyrazolo[1,5-a]pyrimidin-7-yl]phenyl}ethanesulfonamide]	–	< 1	–
COC(=O)CCC(=O)Nc1cccc(-c2ccnc3c(C(=O)c4cccs4)cnn23)c1 [Example 35, methyl 4-oxo-4-({3-[3-(thien-2-ylcarbonyl)pyrazolo[1,5-a]pyrimidin-7-yl]phenyl}anmino)butanoate]	–	10 to 50	–
O=C(c1cccs1)c1cnn2c(-c3cccc(NC(=O)C(Cl)(Cl)Cl)c3)ccnc12 [Example 38, 2,2,2-trichloro-N-{3-[3-(thien-2-ylcarbonyl)pyrazolo[1,5-a]pyrimidin-7-yl]phenyl} acetamide]	–	1 to 10	–
O=C(c1cccs1)c1cnn2c(-c3cccc(NC(=O)[C@@H]4CCCN4C(=O)C(F)(F)F)c3)ccnc12 [Example 41, N-{3-[3-(thien-2-ylcarbonyl)pyrazolo[1,5-a]pyrimidin-7-yl]phenyl}-1-(trifluoroacetyl)-L-prolinamide]	1 to 10	–	–
O=C(c1cccs1)c1cnn2c(-c3cccc(NC(=O)C45CC6CC(CC(C6)C4)C5)c3)ccnc12 [Example 42, N-{3-[3-(thien-2-ylcarbonyl)pyrazolo[1,5-a]pyrimidin-7-yl]phenyl} adamantane-1-carboxamide]	< 1	–	–
CC12CCC(C(=O)Nc3cccc(-c4ccnc5c(C(=O)c6cccs6)cnn45)c3)(OC1=O)C2(C)C (centres unmarked) [Example 43]	–	< 1	–
C#CCCC(=O)Nc1cccc(-c2ccnc3c(C(=O)c4cccs4)cnn23)c1 [Example 45, N-{3-[3-(thien-2-ylcarbonyl)pyrazolo[1,5-a]pyrimidin-7-yl]phenyl}pent-4-ynamide]	< 1	–	–
CC(=O)OCC(=O)Nc1cccc(-c2ccnc3c(C(=O)c4cccs4)cnn23)c1 [Example 48, 2-oxo-2-({3-[3-(thien-2-ylcarbonyl)pyrazolo[1,5-a]pyrimidin-7-yl]phenyl}amino)ethyl acetate]	1 to 10	–	–
COCCOCC(=O)Nc1cccc(-c2ccnc3c(C(=O)c4cccs4)cnn23)c1 [Example 49, 2-(2-methoxyethoxy)-N-{3-[3-(thien-2-ylcarbonyl)pyrazolo[1,5-a]pyrimidin-7-yl]phenyl} acetamide]	–	1 to 10	–
O=C(Cc1cccs1)Nc1cccc(-c2ccnc3c(C(=O)c4cccs4)cnn23)c1 [Example 50, 2-thien-2-yl-N-{3-[3-(thien-2-ylcarbonyl)pyrazolo[1,5-a]pyrimidin-7-yl]phenyl}acetamide]	< 1	–	–
NCC(=O)Nc1cccc(-c2ccnc3c(C(=O)c4cccs4)cnn23)c1 [Example 59, N-1--{3-[3-(thien-2-ylcarbonyl)pyrazolo[1,5-a]pyrimidin-7-yl]phenyl}glycinamide]	–	10 to 50	–
C[C@H](N)C(=O)Nc1cccc(-c2ccnc3c(C(=O)c4cccs4)cnn23)c1 [Example 60, N-1-{3-[3-(thien-2-ylcarbonyl)pyrazolo[1,5-a]pyrimidin-7-yl]phenyl}-L-alaninamide]	–	1 to 10	–
CC(C)C[C@H](N)C(=O)Nc1cccc(-c2ccnc3c(C(=O)c4cccs4)cnn23)c1 [Example 61, N-1-{3-[3-(thien-2-ylcarbonyl)pyrazolo[1,5-a]pyrimidin-7-yl]phenyl}-L-leucinamide]	–	10 to 50	–
CC[C@H](C)[C@H](N)C(=O)Nc1cccc(-c2ccnc3c(C(=O)c4cccs4)cnn23)c1 [Example 62, N-1-{3-[3-(thien-2-ylcarbonyl)pyrazolo[1,5-a]pyrimidin-7-yl]phenyl}-L-isoleucinamide]	–	1 to 10	–
N[C@@H](CC1CCCCC1)C(=O)Nc1cccc(-c2ccnc3c(C(=O)c4cccs4)cnn23)c1 [Example 64, 3-cyclohexyl-N-1-{3-[3-(thien-2-ylcarbonyl)pyrazolo[1,5-a]pyrimidin-7-yl]phenyl}-L-alaninamide]	–	10 to 50	–
CC(C)[C@H](N)C(=O)Nc1cccc(-c2ccnc3c(C(=O)c4cccs4)cnn23)c1 [Example 65, N-1-{3-[3-(thien-2-ylcarbonyl)pyrazolo[1,5-a]pyrimidin-7-yl]phenyl}-L-valinamide]	–	1 to 10	–
O=C(c1cccs1)c1cnn2c(-c3cccc(NC(=O)[C@@H]4CCCN4)c3)ccnc12 [Example 67, N-{3-[3-(thien-2-ylcarbonyl)pyrazolo[1,5-a]pyrimidin-7-yl]phenyl}-L-prolinamide]	1 to 10	–	–
N[C@H](C(=O)Nc1cccc(-c2ccnc3c(C(=O)c4cccs4)cnn23)c1)C1CCCCC1 [Example 68, (2S)-2-amino-2-cyclohexyl-N-{3-[3-(thien-2-ylcarbonyl)pyrazolo[1,5-a]pyrimidin-7-yl]phenyl}ethanamide]	1 to 10	–	–
O=C(Nc1cccc(-c2ccnc3c(C(=O)c4cccs4)cnn23)c1)c1ccc(Cl)cc1 [Example 71, 4-chloro-N-{3-[3-(thien-2-ylcarbonyl)pyrazolo[1,5-a]pyrimidin-7-yl]phenyl}benzamide]	1 to 10	–	–
O=C(COc1ccccc1)Nc1cccc(-c2ccnc3c(C(=O)c4cccs4)cnn23)c1 [Example 93, 2-phenoxy-N-{3-[3-(thien-2-ylcarbonyl)pyrazolo[1,5-a]pyrimidin-7-yl]pheriyl}acetamide]	–	1 to 10	–
CC(C)(C)C(=O)NCC(=O)Nc1cccc(-c2ccnc3c(C(=O)c4cccs4)cnn23)c1 [Example 114, 2,2-dimethyl-N-[2-oxo-2-({3-[3-(thien-2-ylcarbonyl)pyrazolo[1,5-a]pyrimidin-7-yl]phenyl}amino)ethyl]propanamide]	1 to 10	–	–
O=C(CNC(=O)C12CC3CC(CC(C3)C1)C2)Nc1cccc(-c2ccnc3c(C(=O)c4cccs4)cnn23)c1 [Example 116, N-[2-oxo-2-({3-[3-(thien-2-ylcarbonyl)pyrazolo[1,5-a]pyrimidin-7-yl]phenyl}amino)ethyl] adamantane-1-carboxamide]	1 to 10	–	–
CCCCCNC(=O)NCC(=O)Nc1cccc(-c2ccnc3c(C(=O)c4cccs4)cnn23)c1 [Example 118, N-2-[(pentylamino)carbonyl]-N-1-{3-[3-(thien-2-ylcarbonyl)pyrazolo[1,5-A]pyrimidin-7-yl]phenyl}glycinamide]	–	10 to 50	–
CCNC(=O)NCC(=O)Nc1cccc(-c2ccnc3c(C(=O)c4cccs4)cnn23)c1 [Example 119, N-2-[(ethylamino)carbonyl]-N-1-{3-[3-(thien-2-ylcarbonyl)pyrazolo[1,5-a]pyrimidin-7-1yl]phenyl}glycinamide]	–	1 to 10	–
O=C(CNC(=O)NC1CCCCC1)Nc1cccc(-c2ccnc3c(C(=O)c4cccs4)cnn23)c1 [Example 120, N-2-[(cyclohexylamino)carbonyl]-N-1-{3-[3-(thien-2-ylcarbonyl)pyrazolo[1,5-a]pyrimidin-7-yl]phenyl}glycinamide]	–	1 to 10	–
